Values after ≈ are worked out from the molar mass of the structure shown. Each block holds one compound with its values, some of them ahead of it.
Key:
Assay type in all cases: physicochemical
[1] = Solubility in HP-β-CD at high pH; conditions: 25% cyclodextrin solution, aqueous with cosolvent or surfactant or cyclodextrin
Description: Compound forms a metastable supersaturated solution when formulated with cyclodextrins. To assess for increased solubility, Compound 1 was added to a basic cyclodextrin solution to effect dissolution. The resulting solution was then adjusted with hydrochloric acid into a physiologically compatible pH range and subjected to kinetic solubility, equilibrium solubility, and formulation solubility analyses.
Kinetic solubility. […] The resulting intermediate pH values were approximately 12.5, which promoted rapid dissolution of Compound 1. However, the solutions are known to be chemically labile at higher pH values. The concentration of Compound 1 in subsequent formulation evaluations was lowered to 20 mg/mL and then reduced to 15 mg/mL.

[2] = Aqueous solubility (general statements)
[3] = Solubility measurement in buffers over a pH range; conditions: thermodynamic from solid
Description: (§1) Solubility analysis of Compound 1 (N-(benzo[d]thiazol-2-yl)-4-((2-hydroxy-3-methoxybenzyl)amino)benzenesulfonamide) was performed in a total of 25 media including organic solvent, co-solvent, solubilizer and buffer, for 2 hours at room temperature.
(§2) HPLC method with acceptable resolution and main peak purity developed to determine solubility. The method is described in Table 3.
(§3) 5-10 mg of Compound 1 was added to 0.5-1 mL each medium (target concentration was 10 mg/mL), vortexed briefly to create a suspension. The samples were shaken at room temperature. The samples were prepared in duplicate (n=2) per medium and filtered at 0.5 and 2 hours. The supernatant was collected and analyzed by HPLC.

[4] = Solubility measurement in solvents; conditions: for solubility at 2 h / solubility at 0.5 h: room temperature
Description: as §1, §2
About 5 mg of Compound 1 was weighed to sample vial and 0.5 mL of solvent was added (target concentration was 10 mg/mL) with 30-100 μL per time. The samples were shaken at room temperature. The samples were prepared in duplicate (n=2) per medium and filtered at 0.5 and 2 hours. The supernatant was collected and analyzed by HPLC.

[5] = Solubility measurement in solubilizers (aqueous phosphate buffer at pH 7.4)
Description: as §1, §2, §3

[6] = Comparative solubility in SBE-β-CD at pH 9.5; conditions: pH 9.5, 80 mg/mL, 22 hours stirring at room temperature
Description: For this study, 1.20 g of SBE-β-CD was weighed into a beaker and 1.31 mL of water was added. This mixture was stirred to dissolve solid completely. 0.846 g of 60% SBE-β-CD stock solution was weighed into a sample vial, and 1.53 mg of GLY, 70 μL of water, and 130 μL of 2N NaOH were added. This mixture was stirred for 10 minutes at room temperature to dissolve solid completely. 80.6 mg of Compound 1 was added (80 mg/mL) and the mixture was sonicated for 10 minutes followed by vigorous stirring for 22 hours at room temperature (23-25° C.).

[7] = pH 8.0, read-out: Solubility with 25% cyclodextrin at pH 8.0
[8] = pH 9.8, read-out: Solubility with 25% cyclodextrin at pH 9.8

solubility [1, 7]: ~20000 µg/mL (≈ 47000 µM)
solubility [1, 8]: ~40000 µg/mL (≈ 94000 µM)
Solubility in water [2]: poor solubility
SMILES: COc1cccc(CNc2ccc(S(=O)(=O)Nc3nc4ccccc4o3)cc2)c1O [Compound 2, N-(benzo[d]oxazol-2-yl)-4-((2-hydroxy-3-methoxybenzyl)amino)benzenesulfonamide]

solubility [1, 7]: ~20000 µg/mL (≈ 46900 µM)
solubility [1, 8]: ~40000 µg/mL (≈ 93800 µM)
Solubility in water [2]: poor solubility
SMILES: COc1cccc(CNc2ccc(S(=O)(=O)Nc3cccc(C(C)C)c3)cc2)c1O [Compound 3, 4-((2-hydroxy-3-methoxybenzyl)amino)-N-(3-isopropylphenyl)benzenesulfonamide]

solubility at 0.5 h ([3]; bicarbonate buffer pH 10.0, pH 10, aqueous buffer, Bicarbonate, pH 10.0, 0.5 h (measured pH 10.02)): 0.397 µg/mL (≈ 0.899 µM)
solubility at 2 h ([3]; bicarbonate buffer pH 10.0, pH 10, aqueous buffer, Bicarbonate, pH 10.0, 2 h (measured pH 10.08)): 0.576 µg/mL (≈ 1.31 µM)
solubility ([3]; pH 10 buffer, pH 10, aqueous buffer, pH 10, read-out: Solubility in pH 10 buffer): 0.4 to 0.6 µg/mL (≈ 0.906 to 1.36 µM)
solubility ([3]; pH buffers, pH 1, aqueous buffer, pH 1-9 buffers, main peak not detected by HPLC, read-out: Solubility in pH buffers, pH 1-9): < 0.15 µg/mL
solubility [1, 7]: ~20000 µg/mL (≈ 45300 µM)
solubility [1, 8]: ~40000 µg/mL (≈ 90600 µM)
Solubility in water [2]: poor solubility
solubility at 2 h ([4]; DMAC, 2 h, visual observation): Not precipitated
solubility at 0.5 h ([4]; DMAC, organic solvent or mixture, thermodynamic from solid, 0.5 h, visual observation): > 100000 µg/mL
solubility at 2 h ([4]; DMSO, 2 h, visual observation): Not precipitated
solubility at 0.5 h ([4]; DMSO, organic solvent or mixture, thermodynamic from solid, 0.5 h, visual observation): > 100000 µg/mL
solubility at 0.5 h ([4]; EtOH, organic solvent or mixture, thermodynamic from solid, 0.5 h): 290 µg/mL (≈ 657 µM)
solubility at 2 h ([4]; EtOH, organic solvent or mixture, thermodynamic from solid, EtOH, 2 h, read-out: Solubility at 2 h): 270 µg/mL (≈ 612 µM)
solubility at 0.5 h ([4]; Glycerin, organic solvent or mixture, thermodynamic from solid, 0.5 h): 13 µg/mL (≈ 29.4 µM)
solubility at 2 h ([4]; Glycerin, organic solvent or mixture, thermodynamic from solid, Glycerin, 2 h, read-out: Solubility at 2 h): 25 µg/mL (≈ 56.6 µM)
solubility at 2 h ([4]; NMP, 2 h, visual observation): Not precipitated
solubility at 0.5 h ([4]; NMP, organic solvent or mixture, thermodynamic from solid, 0.5 h, visual observation): > 100000 µg/mL
solubility at 0.5 h ([4]; PEG400, organic solvent or mixture, thermodynamic from solid, PEG400, 0.5 h): 4420 µg/mL (≈ 10000 µM)
solubility at 2 h ([4]; PEG400, organic solvent or mixture, thermodynamic from solid, PEG400, 2 h, solution was clear at 2 h, read-out: Solubility at 2 h): > 10000 µg/mL
solubility ([4]; PEG400, organic solvent or mixture, thermodynamic from solid, PEG400, span over 0.5 h and 2 h, read-out: Solubility in PEG400): 4000 to 10000 µg/mL (≈ 9060 to 22600 µM)
solubility at 0.5 h ([4]; PG, organic solvent or mixture, thermodynamic from solid, 0.5 h): 400 µg/mL (≈ 906 µM)
solubility at 2 h ([4]; PG, organic solvent or mixture, thermodynamic from solid, PG, 2 h, read-out: Solubility at 2 h): 420 µg/mL (≈ 951 µM)
solubility ([4]; hexane, organic solvent or mixture, thermodynamic from solid, hexane, non-polar solvent, read-out: Solubility in hexane): < 0.15 µg/mL
solubility at 0.5 h ([4]; n-Hexane, organic solvent or mixture, thermodynamic from solid, 0.5 h, LOQ = 0.00015 mg/mL): < 0.15 µg/mL
solubility at 2 h ([4]; n-Hexane, organic solvent or mixture, thermodynamic from solid, n-Hexane, 2 h, LOQ = 0.00015 mg/mL, read-out: Solubility at 2 h): < 0.15 µg/mL
solubility ([4]; solvents other than DMSO, DMAC, NMP and PEG400, organic solvent or mixture, thermodynamic from solid, solvents other than DMSO, DMAC, NMP and PEG400, read-out: Solubility in other solvents): < 1000 µg/mL
solubility at 0.5 h ([5]; 1% Tween 80 in phosphate buffer, pH 7.4, aqueous with cosolvent or surfactant or cyclodextrin, thermodynamic from solid, 1% Tween 80, phosphate buffer pH 7.4, 0.5 h): 20 µg/mL (≈ 45.3 µM)
solubility at 2 h ([5]; 1% Tween 80 in phosphate buffer, pH 7.4, aqueous with cosolvent or surfactant or cyclodextrin, thermodynamic from solid, 1% Tween 80, phosphate buffer pH 7.4, 2 h, read-out: Solubility at 2 h): 39 µg/mL (≈ 88.3 µM)
solubility at 0.5 h ([5]; 5% Cremophor RH40 in phosphate buffer, pH 7.4, aqueous with cosolvent or surfactant or cyclodextrin, thermodynamic from solid, 5% Cremophor RH40, phosphate buffer pH 7.4, 0.5 h): 47 µg/mL (≈ 106 µM)
solubility at 2 h ([5]; 5% Cremophor RH40 in phosphate buffer, pH 7.4, aqueous with cosolvent or surfactant or cyclodextrin, thermodynamic from solid, 5% Cremophor RH40, phosphate buffer pH 7.4, 2 h, read-out: Solubility at 2 h): 51 µg/mL (≈ 116 µM)
solubility at 0.5 h ([5]; 5% Solutol in phosphate buffer, pH 7.4, aqueous with cosolvent or surfactant or cyclodextrin, thermodynamic from solid, 5% Solutol, phosphate buffer pH 7.4, 0.5 h): 78 µg/mL (≈ 177 µM)
solubility at 2 h ([5]; 5% Solutol in phosphate buffer, pH 7.4, aqueous with cosolvent or surfactant or cyclodextrin, thermodynamic from solid, 5% Solutol, phosphate buffer pH 7.4, 2 h, read-out: Solubility at 2 h): ~100 µg/mL (≈ 226 µM)
solubility at 2 h ([5]; 5% Solutol, phosphate buffer pH 7.4, 2 h): 100 µg/mL (≈ 226 µM)
solubility at 0.5 h ([5]; 5% Tween 80 in phosphate buffer, pH 7.4, aqueous with cosolvent or surfactant or cyclodextrin, thermodynamic from solid, 5% Tween 80, phosphate buffer pH 7.4, 0.5 h): 41 µg/mL (≈ 92.9 µM)
solubility at 2 h ([5]; 5% Tween 80 in phosphate buffer, pH 7.4, aqueous with cosolvent or surfactant or cyclodextrin, thermodynamic from solid, 5% Tween 80, phosphate buffer pH 7.4, 2 h, read-out: Solubility at 2 h): 46 µg/mL (≈ 104 µM)
solubility at 0.5 h ([5]; 10% HP-β-CD in phosphate buffer, pH 7.4, aqueous with cosolvent or surfactant or cyclodextrin, thermodynamic from solid, 10% HP-β-CD, phosphate buffer pH 7.4, 0.5 h): 56 µg/mL (≈ 127 µM)
solubility at 2 h ([5]; 10% HP-β-CD in phosphate buffer, pH 7.4, aqueous with cosolvent or surfactant or cyclodextrin, thermodynamic from solid, 10% HP-β-CD, phosphate buffer pH 7.4, 2 h, read-out: Solubility at 2 h): 63 µg/mL (≈ 143 µM)
solubility at 0.5 h ([5]; 10% Tween 80 in phosphate buffer, pH 7.4, aqueous with cosolvent or surfactant or cyclodextrin, thermodynamic from solid, 10% Tween 80, phosphate buffer pH 7.4, 0.5 h): 76 µg/mL (≈ 172 µM)
solubility at 2 h ([5]; 10% Tween 80 in phosphate buffer, pH 7.4, aqueous with cosolvent or surfactant or cyclodextrin, thermodynamic from solid, 10% Tween 80, phosphate buffer pH 7.4, 2 h, read-out: Solubility at 2 h): 78 µg/mL (≈ 177 µM)
solubility at 0.5 h ([5]; 20% Captisol in phosphate buffer, pH 7.4, aqueous with cosolvent or surfactant or cyclodextrin, thermodynamic from solid, 20% Captisol, phosphate buffer pH 7.4, 0.5 h): 100 µg/mL (≈ 226 µM)
solubility at 2 h ([5]; 20% Captisol in phosphate buffer, pH 7.4, aqueous with cosolvent or surfactant or cyclodextrin, thermodynamic from solid, 20% Captisol, phosphate buffer pH 7.4, 2 h, read-out: Solubility at 2 h): 110 µg/mL (≈ 249 µM)
solubility at 0.5 h ([5]; 20% HP-β-CD in phosphate buffer, pH 7.4, aqueous with cosolvent or surfactant or cyclodextrin, thermodynamic from solid, 20% HP-β-CD, phosphate buffer pH 7.4, 0.5 h): 170 µg/mL (≈ 385 µM)
solubility at 2 h ([5]; 20% HP-β-CD in phosphate buffer, pH 7.4, aqueous with cosolvent or surfactant or cyclodextrin, thermodynamic from solid, 20% HP-β-CD, phosphate buffer pH 7.4, 2 h, read-out: Solubility at 2 h): 190 µg/mL (≈ 430 µM)
solubility at 0.5 h ([5]; 40% HP-β-CD in aqueous phosphate buffer pH 7.4, pH 7.4, aqueous with cosolvent or surfactant or cyclodextrin, thermodynamic from solid, 40% HP-β-CD, phosphate buffer pH 7.4, 0.5 h): 450 µg/mL (≈ 1020 µM)
solubility at 2 h ([5]; 40% HP-β-CD in phosphate buffer, pH 7.4, aqueous with cosolvent or surfactant or cyclodextrin, thermodynamic from solid, 40% HP-β-CD, phosphate buffer pH 7.4, 2 h, read-out: Solubility at 2 h): 570 µg/mL (≈ 1290 µM)
Increase of solubility with the increase of HP-β-CD from 10% to 40% ([5]; HP-β-CD 10% to 40%, pH 7.4): > 8 fold
solubility ([5]; HP-β-CD (range of contents) in aqueous phosphate buffer, pH 7.4, aqueous with cosolvent or surfactant or cyclodextrin, thermodynamic from solid, HP-β-CD, range over contents tested): 50 to 500 µg/mL (≈ 113 to 1130 µM)
Increase of solubility with the increase of Tween 80 from 1% to 10% ([5]; Tween 80 1% to 10%): about 4 fold
Solubility in HP-β-CD compared with Captisol (SBE-β-CD) ([5]; same concentration (20%)): nearly two times greater
Dissolution in SBE-β-CD, visual observation [6]: Little, if any, dissolution
SMILES: COc1cccc(CNc2ccc(S(=O)(=O)Nc3nc4ccccc4s3)cc2)c1O [Compound 1, N-(benzo[d]thiazol-2-yl)-4-((2-hydroxy-3-methoxybenzyl)amino)benzenesulfonamide]
